{"source": "paper PMC11206207", "about": "(Chemical Science, 2024)", "key": {"[1]": {"target": "TEAD4 (Homo sapiens, UniProt Q15561)", "sequence (Q15561 210-434)": "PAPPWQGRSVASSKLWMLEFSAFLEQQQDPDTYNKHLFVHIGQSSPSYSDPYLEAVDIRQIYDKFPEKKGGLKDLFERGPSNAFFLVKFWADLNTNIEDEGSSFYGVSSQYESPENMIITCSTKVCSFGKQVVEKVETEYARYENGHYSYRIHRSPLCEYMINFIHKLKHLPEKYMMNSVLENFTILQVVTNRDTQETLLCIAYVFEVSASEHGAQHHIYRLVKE", "experiment": "Fluorescence polarization binding assay of FAM/FITC-labelled peptides to TEAD4"}, "[2]": {"tested_on": "AGS cells", "experiment": "Cell viability assay", "assay_type": "cell-based", "conditions": "24 hours"}}, "note": "Numbered stars: 1 amine (or outer) side, 2 acyl side, 3 side chain; on linkers, the order of the positions; unused ones are H or OH. Bridge positions count the residues as written; N and C are the ends. Ends that are not written are not given here. Peptide text beside a SMILES is read from it. * marks the point of attachment. FITC = O=C1OC2(c3ccc(O)cc3Oc3cc(O)ccc32)c2ccc(NC(=S)*)cc21; X1 = O=C(C[*:2])Nc1cc(NC(=O)C[*:3])cc(C(=O)[*:1])c1; AEEA = NCCOCCOCC(=O)O", "data": [{"compound": "CC(C)C[C@H](NC(=O)[C@H](CO)NC(=O)[C@H](Cc1ccccc1)NC(=O)[C@H](CC(=O)O)NC(=O)[C@H](Cc1c[nH]c2ccccc12)NC(=O)[C@H](Cc1ccccc1)NC(=O)[C@H](CO)NC(=O)[C@H](CCCCN)NC(=O)[C@@H]1CCCN1C(=O)[C@H](Cc1c[nH]c2ccccc12)NC(=O)[C@H](CCC(N)=O)NC(=O)CNC(=O)[C@@H](NC(=O)[C@H](CCCCN)NC(=O)[C@@H]1CCCN1C(=O)[C@H](CC(C)C)NC(=O)COCCOCCNC(=S)Nc1ccc2c(c1)C(=O)OC21c2ccc(O)cc2Oc2cc(O)ccc21)[C@@H](C)O)C(=O)NCC(=O)N[C@@H](CS)C(=O)NCC(=O)NCC(=O)N[C@@H](CO)C(=O)NCC(N)=O", "note": "[linear version of 15] ({FITC-AEEA}-LPKTGQWPKSFWDFSLGCGGSG-NH2; N-terminus and C-terminus assumed)", "values": [{"measurement": "Kd", "setting": "[1]", "value": 6.3, "unit": "µM"}]}, {"compound": "CC(=O)N[C@@H](CC(C)C)C(=O)N1CCC[C@H]1C(=O)N[C@H]1CCCCNC(=O)c2cc3cc(c2)NC(=O)CSC[C@H](NC(=O)[C@H](CO)NC(=O)[C@H](C(C)C)NC(=O)[C@H](Cc2c[nH]c4ccccc24)NC(=O)[C@H](CO)NC(=O)[C@H]([C@@H](C)O)NC(=O)[C@H](CC(C)C)NC(=O)CNC(=O)[C@H]([C@@H](C)O)NC1=O)C(=O)N[C@@H](Cc1c[nH]cn1)C(=O)N[C@@H](Cc1ccccc1)C(=O)N[C@@H](CC(C)C)C(=O)N[C@@H](CCCNC(=N)N)C(=O)N[C@@H](CO)C(=O)N[C@@H](CC(C)C)C(=O)N[C@H](C(=O)NCC(=O)NCC(=O)N[C@@H](CO)C(=O)NCC(N)=O)CSCC(=O)N3", "note": "[compound 16] (Ac-LPKTGLTSWVSCHFLRSLCGGSG-NH2; linker 3-12-19 via X1)", "values": [{"measurement": "inhibitory activity on AGS cells", "setting": "[2]; at 10 μM, in presence of PDPA nanocarrier", "value": "little inhibitory inhibition"}]}, {"compound": "PKKKRKVDPKKKRKVDPKKKRKVNGLPKTGLTSWVSCHFLRSLCGGSG-NH2 (linker 28-37-44 via X1; C-terminus assumed) [16-NLS]", "values": [{"measurement": "EC50", "setting": "[2]; read-out: cellular inhibitory activity EC50, AGS cells", "value": 8.3, "unit": "µM"}]}]}
